# Measured values: the supplement of paper PMC10307832
# Columns and labels:
# Assay in all cases: relative viability (nuclei count vs DMSO), 5 days (fraction); higher = more cells survive
# SGI-1776 + Palbociclib = compound: CN1CCC(CNc2ccc3ncc(-c4cccc(OC(F)(F)F)c4)n3n2)CC1 [SGI-1776] + CC(=O)c1c(C)c2cnc(Nc3ccc(N4CCNCC4)cn3)nc2n(C2CCCC2)c1=O [Palbociclib] (partner 0.5 µM)
# Outline: (§1)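 Relative viability was taken as the ratio of nuclei in treated wells to nuclei in vehicle wells. Lung cancer cell lines in 1536-well plates received compounds by pin tool one day after seeding, either one drug alone or a fixed anchor-drug dose plus five library-drug doses (not always all listed) in √10 steps. Nuclei were counted on 4× images after 5 days of treatment, and values are medians of duplicate plates.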
# Entinostat + Palbociclib = compound: Nc1ccccc1NC(=O)c1ccc(CNC(=O)OCc2cccnc2)cc1 [Entinostat] + CC(=O)c1c(C)c2cnc(Nc3ccc(N4CCNCC4)cn3)nc2n(C2CCCC2)c1=O [Palbociclib] (partner 0.5 µM)
# Outline: as §1
# [1] = compound: C1COCCN1C2=NC(=NC3=C2OC4=C3C=CC=N4)C5=CC(=CC=C5)NC(=O)C6=CN=C(C=C6)N + CC1(C)CCC(c2ccc(Cl)cc2)=C(CN2CCN(c3ccc(C(=O)NS(=O)(=O)c4ccc(N[C@H](CCN5CCOCC5)CSc5ccccc5)c(S(=O)(=O)C(F)(F)F)c4)cc3)CC2)C1 [Navitoclax] (partner 0.5 µM)
# Outline: as §1
# [2] = compound: C1COCCN1C2=NC(=NC3=C2OC4=C3C=CC=N4)C5=CC(=CC=C5)NC(=O)C6=CN=C(C=C6)N + NC(=O)Nc1cc(-c2cccc(F)c2)sc1C(=O)N[C@H]1CCCNC1 [AZD7762] (partner 0.2 µM)
# Outline: as §1
Cell Line,relative viability (SGI-1776 + Palbociclib; first compound 0.08 µM),relative viability (SGI-1776 + Palbociclib; first compound 0.8 µM),relative viability (SGI-1776 + Palbociclib; first compound 2.53 µM),relative viability (SGI-1776 + Palbociclib; first compound 8 µM),relative viability (Entinostat + Palbociclib; first compound 0.02 µM),relative viability (Entinostat + Palbociclib; first compound 0.06325 µM),relative viability (Entinostat + Palbociclib; first compound 0.2 µM),relative viability (Entinostat + Palbociclib; first compound 0.6325 µM),relative viability (Entinostat + Palbociclib; first compound 2 µM),relative viability ([1]; first compound 0.02 µM),relative viability ([1]; first compound 0.06325 µM),relative viability ([1]; first compound 0.2 µM),relative viability ([1]; first compound 0.6325 µM),relative viability ([1]; first compound 2 µM),relative viability ([2]; first compound 0.02 µM),relative viability ([2]; first compound 0.06325 µM),relative viability ([2]; first compound 0.2 µM),relative viability ([2]; first compound 0.6325 µM),relative viability ([2]; first compound 2 µM)
HOP-62,0.548,0.428,0.423,0.379,0.409,0.44,0.45,0.195,0.162,1.05,1.32,1.27,1.01,0.735,0.732,0.494,0.434,0.633,0.291
BEN,0.447,0.476,0.457,0.47,0.543,0.466,0.457,0.454,0.4,0.0527,0.058,0.0742,0.0452,0.0457,0.726,0.636,0.66,0.621,0.657
ChaGo-K-1,0.911,0.974,0.967,0.911,0.976,0.931,0.989,0.852,0.75,0.96,0.863,0.619,1.01,0.839,0.892,0.93,0.84,0.886,0.635
NCI-H1792,0.659,0.626,0.59,0.615,0.709,0.745,0.723,0.626,0.523,0.571,0.675,0.718,0.53,0.462,0.593,0.707,0.509,0.544,0.386
NCI-H2085,0.491,0.482,0.468,0.444,0.438,0.441,0.43,0.4,0.421,1.15,1.12,1.05,1.1,0.602,0.934,0.969,0.874,0.646,0.598
201T,0.36,0.346,0.342,0.327,0.384,0.376,0.426,0.378,0.373,1.2,1.23,1.14,1.12,1.1,0.655,0.626,0.603,0.509,0.534
NCI-H1395,0.615,0.588,0.611,0.457,0.602,0.773,0.802,0.603,0.523,0.919,1.07,1.03,1.25,1.19,0.387,0.348,0.374,0.371,0.372
NCI-H23,0.507,0.574,0.421,0.482,0.568,0.661,0.507,0.509,0.283,0.788,0.968,0.733,0.72,0.533,0.241,0.23,0.24,0.174,0.216
LXF-289,0.593,0.583,0.619,0.602,0.577,0.606,0.575,0.509,0.514,0.989,1.02,0.973,0.924,0.711,1.08,1.3,1.08,1.09,0.67
EKVX,0.436,0.431,0.37,0.318,0.467,0.434,0.343,0.326,0.242,1.17,0.939,0.944,0.805,0.684,0.9,0.869,0.747,0.709,0.578
LC-2-ad,0.495,0.535,0.457,0.467,0.473,0.412,0.417,0.421,0.323,0.461,0.529,0.418,0.611,0.379,0.939,0.9,0.831,0.805,0.585
NCI-H1734,0.387,0.339,0.345,0.283,0.385,0.375,0.402,0.347,0.256,0.838,0.99,0.87,0.821,0.441,0.661,0.612,0.497,0.498,0.422
LOU-NH91,0.647,0.552,0.536,0.537,0.466,0.581,0.532,0.531,0.508,0.658,0.728,0.765,0.74,0.586,0.733,0.793,0.734,0.748,0.59
NCI-H2170,0.376,0.349,0.408,0.364,0.387,0.362,0.314,0.252,0.216,0.674,0.605,0.673,0.525,0.413,0.914,1.05,0.798,0.837,0.488
NCI-H1793,0.353,0.335,0.311,0.298,0.329,0.321,0.263,0.248,0.189,0.398,0.523,0.416,0.655,0.375,0.723,0.457,0.357,0.298,0.279
NCI-H322M,0.515,0.508,0.476,0.451,0.499,0.533,0.495,0.546,0.516,1.14,1.19,1.21,0.924,1.12,0.543,0.49,0.575,0.56,0.516
PC-3 [JPC-3],0.518,0.534,0.533,0.49,0.529,0.47,0.486,0.442,0.378,0.823,0.847,0.848,0.741,0.615,0.904,0.752,–,0.784,0.625
